Experiment: gradient 5% acetonitrile 3 min, to 50% in 2 min, to 85% in 15 min, held 3 min, 100 µL/min
Conditions: column: Zorbax Extend-C18 2.1 x 50 mm; eluents: water / acetonitrile, 0.1% formic acid
Procedure, shortened: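 A Zorbax Extend-C18 column (2.1 × 50 mm, 1.8 μm) run at 100 μL/min with water and acetonitrile, both containing 0.1% formic acid, separated mixtures of ~100 pure standards. The HPLC was coupled to a quadrupole time-of-flight mass spectrometer operated in positive and negative ionization mode, with dead and dwell volumes of 40 μL and 900 μL. Each retention time was taken from a computationally picked adduct peak that was then manually inspected.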

Row | RP-LC retention time [s] | SMILES
1 | 810 | COc1ccc(NC(=O)C(C)C2CCN(C(=O)Nc3ccccc3)CC2)c(OC)c1 (centres undefined)
2 | 577 | CC(=O)N1C[C@@H]2CCCN3CCC[C@@H]([C@H]23)[C@H]1CCCC(=O)NCC(C)C
3 | 1100 | Cc1nnc(-c2cc3ccccc3n2Cc2ccccc2Cl)o1
4 | 658 | CN(C)c1ccc(CNC(=O)CCCn2c(=O)c3cccn3c3ccc(F)cc32)cc1
5 | 735 | Cc1nc(Nc2ccc(Br)cn2)sc1C(=O)NC1CC1
6 | 1220 | Cc1c(Cl)cccc1S(=O)(=O)N1CCCC1c1nc(-c2cccc(F)c2)no1 (centres undefined)
7 | 735 | O=C(Nc1c(-c2ccccc2)nc2ccc(Cl)cn12)c1cccs1
8 | 858 | CCOC(=O)C1CCN(C(=O)Cn2nc3cc(-c4ccccc4)nc(C)n3c2=O)CC1
9 | 1000 | CC(C)(CO)c1cc2cc(NC(=O)C3(c4ccc5c(c4)OC(F)(F)O5)CC3)c(F)cc2n1C[C@@H](O)CO
10 | 1110 | CCSc1nc2ccc(NS(=O)(=O)c3ccc(F)cc3Cl)cc2s1
11 | 765 | COc1cccc(NC(=O)C2CCCN(S(=O)(=O)c3c[nH]c(C(=O)N4CCCC4)c3)C2)c1 (centres undefined)
12 | 1040 | CCN(CC)S(=O)(=O)c1cc(-c2nnc(-c3ccccc3Cl)o2)ccc1OC
13 | 698 | NC(=O)c1ccc2c(c1)CCN2C(=O)C1CCCC1
14 | 1050 | Fc1cccc(-n2cc(-c3noc(-c4ccccc4F)n3)nn2)c1
15 | 827 | c1cncc(-c2nnc3sc(-c4ccc5c(c4)OCCO5)nn23)c1
16 | 978 | CCOC(=O)c1ccc(N2C=C(C#N)S(=O)(=O)c3ccc(C)cc32)cc1
17 | 760 | CCCc1cc(C2CCCN2C(=O)Cc2ccc(OC)c(OC)c2)no1 (centres undefined)
18 | 706 | Cc1cc(C(=O)Nc2nnc(-c3cccs3)o2)c(C)o1
19 | 1090 | CCn1c(=O)c2ccccc2n(Cc2nc(-c3ccc(Cl)cc3)no2)c1=O
20 | 719 | CC1(C)CC(=O)C2=C(C1)N(CC1CCCO1)C(=O)C2(NC(=O)c1cccnc1)C(F)(F)F (centres undefined)
21 | 893 | Cc1nc(Cn2cccc2C(=O)Nc2ccc(Cl)cc2F)no1
22 | 640 | CCc1nc(N)n(CC(=O)Nc2cc(C)ccc2OC)c(=O)c1C

Row | RP-LC retention time [s] | SMILES
23 | 794 | Cc1cc(C)cc(NC(=O)C2CCN(Cc3cnn(-c4ccccc4)c3-n3cccc3)CC2)c1
24 | 1090 | CCC(C)NC(=O)c1cc2c(s1)N(CC1CC1)CCCC2 (centres undefined)
25 | 979 | CCn1c(=O)sc2cc(S(=O)(=O)N3CCC(C(=O)Nc4ccc(C)c(F)c4)CC3)ccc21
26 | 630 | O=C(NC1CC1)[C@@H]1C[C@H](Oc2cccnc2)CN1C(=O)c1ccsc1
27 | 692 | Cc1ccccc1CNC(=O)c1cn2ccncc2n1
28 | 620 | O=C(O)c1ccc(Nc2c(-c3cccc(O)c3)nc3cnccn23)cc1
29 | 852 | CSCCC(NS(=O)(=O)c1ccc(Oc2ccccc2C)cc1)C(=O)O (centres undefined)
30 | 950 | CCC(C(=O)N1CCOc2ccc(C)cc21)n1cnc2nc3c(cc2c1=O)CCCC3 (centres undefined)
31 | 932 | Cc1cccc(-n2cc(C(=O)OCc3ccccn3)c3ccccc3c2=O)c1
32 | 702 | CCc1nc2ccc(-c3noc(-c4cccs4)n3)cc2n1CC
33 | 585 | CCCOc1nccnc1N1CCC(NC(=O)c2ccoc2)C1 (centres undefined)
34 | 1360 | CCOC(=O)c1c(C)oc2nc(C)nc(Nc3ccc(OCC)cc3)c12
35 | 882 | CN(C)C(=O)c1ccc(-n2nc(C(F)(F)F)c3c2CCCC3)cc1
36 | 641 | Cn1cc(S(=O)(=O)N2CCC(C(=O)NC3CC3)CC2)cc1C(=O)N1CCCC1
37 | 932 | Cc1ccc(-n2cc3c(c(C(=O)NC(C)C)c2=O)CC(C)(C)CC3=O)cc1
38 | 1070 | COc1ccccc1-c1csc(-c2nnn(-c3ccc(F)cc3)c2N)n1
39 | 725 | Clc1cccc(N2CCN(c3ncnc4[nH]ncc34)CC2)c1
40 | 1050 | O=C(Cc1csc2nc(-c3cccc(Br)c3)cn12)NCCC1=CCCCC1
41 | 728 | COc1ccc(Cl)cc1NC(=O)NCC(c1cccnc1)c1c[nH]c2ccccc12 (centres undefined)
42 | 626 | Cn1cc(-c2cc3n(n2)CCC(=O)N3CC(=O)NCc2ccccn2)c2ccccc21
43 | 1080 | O=S(=O)(c1cc(-c2nnc(C3CC3)o2)co1)N1CCC(Cc2ccccc2)CC1
44 | 712 | CC(C)NC(=O)CN1C(=O)COc2ccc(C(=O)NC3CCCC3)cc21

Row | RP-LC retention time [s] | SMILES
45 | 793 | CN1c2ccc(Cl)cc2C(=O)NC12CCN(C(=O)c1ccccc1)CC2
46 | 808 | CC(C)Cc1nc(CNC(=O)c2coc(C3CC3)n2)no1
47 | 862 | CC(C)n1cc(S(=O)(=O)Nc2ccc(Cl)cc2)c2cccnc21
48 | 820 | O=C(NCCC1=CCCCC1)C1CCN(C(=O)c2ncn3c2COC(c2ccccc2)C3)CC1 (centres undefined)
49 | 804 | Cc1sc2ccn(C)c(=O)c2c1C(=O)NC1CCCCCC1
50 | 577 | CCN1CCN(CCCNc2nc(-c3ccc(Cl)cc3)nc3ccccc23)CC1
51 | 956 | CC1(C(=O)NC2CCCCCCC2)CN(S(C)(=O)=O)CC(=O)N1Cc1cccc(F)c1 (centres undefined)
52 | 890 | CCOC(=O)Nc1cccc(C(F)(F)F)c1
53 | 624 | C=CCSc1nnc(Cc2cc(=O)[nH]c(=O)[nH]2)n1-c1ccc(Cl)cc1
54 | 1010 | Cc1ccc(S(=O)(=O)N2CCCC2)cc1-c1nnc(-c2ccccc2)o1
55 | 573 | NC(=O)Cn1c(CNC(=O)c2ccccc2)nc2ccccc21
56 | 1260 | Cc1ccc(-c2noc(Cc3nc(-c4ccccc4)cs3)n2)cc1
57 | 861 | CC1=C(c2ccccc2)S(=O)(=O)N=C1N1CCCN(C(=O)CC2CCCC2)CC1
58 | 915 | COc1ccc(N2C(=O)C3N=NN(Cc4nc(-c5ccc(C)cc5)no4)C3C2=O)cc1OC (centres undefined)
59 | 1010 | COC(=O)c1cc2ccsc2n1CC(=O)Nc1ccc(F)c(Cl)c1
60 | 670 | O=C(Cn1cnc2nc(N3CCC(C(=O)NC4CC4)CC3)sc2c1=O)NC1CCc2ccccc21 (centres undefined)
61 | 622 | CC(C)CN1CCN(S(=O)(=O)c2cc(-c3nnc(C4CC4)o3)co2)CC1
62 | 916 | Cc1nn2c(CNS(=O)(=O)c3cccc(Cl)c3)c(-c3ccccc3)nc2s1
63 | 589 | COCc1cn(C2CN(C(=O)c3sc(C)nc3C)C2)nn1
64 | 601 | Cc1ccc(N2CCN(CC(O)COc3ccc([N+](=O)[O-])cc3)CC2)cc1 (centres undefined)
65 | 816 | CCc1ccc(CN2C(=O)c3c(C(=O)OC)ncn3CC2(C)C(=O)NC2CCCC2)cc1 (centres undefined)
66 | 603 | CCc1nccn1Cc1nc(-c2ccccc2F)no1

Row | RP-LC retention time [s] | SMILES
67 | 580 | Cc1ccc(CNCCSc2nnnn2C)s1
68 | 1200 | CC(C)(C)c1ccc2c(c1)OCC(=O)N2Cc1nc(-c2ccc3c(c2)OCO3)no1
69 | 757 | CC(C)NC(=O)c1ccc(OCC2CCN(C(=O)c3cccs3)CC2)cc1
70 | 722 | O=S(=O)(Nc1ccc(F)cc1F)c1c[nH]c2ncccc12
71 | 586 | CCOC(=O)C1CCN(CC(=O)Nc2oc3ccccc3c(=O)c2-c2ccccc2)CC1
72 | 870 | CC(C)C(=O)N1N=C(c2ccc(NS(=O)(=O)c3ccccc3)cc2)CC1c1ccco1 (centres undefined)
73 | 668 | CCc1nncn1C1CCN(S(=O)(=O)c2ccc(OC)cc2)CC1
74 | 1090 | Cn1c(=O)oc2cc(-c3noc(-c4cc(F)ccc4Cl)n3)ccc21
75 | 1050 | CCOC(=O)c1nc(N(CC)c2cccc(C)c2)c2ccccc2n1
76 | 818 | COc1cccc(-n2c(N3CCCC(C(=O)NC4CCCC4)C3)nc3ccsc3c2=O)c1 (centres undefined)
77 | 903 | COc1ccc(CC(=O)Nc2ccc(-c3nc(Cn4nc(C)cc4C)c(C)o3)cc2)cc1
78 | 766 | Cc1ccc(NC(=O)Cn2ccc3sccc3c2=O)c(C)c1
79 | 605 | COc1ccc(N2C(=O)CCC(C(=O)NCCCN3CCC(C)CC3)C2c2ccc(F)cc2)cc1 (centres undefined)
80 | 816 | O=C(Cn1nc(C(=O)N2CCOCC2)c2ccccc21)Nc1cccc(Cl)c1
81 | 831 | O=C(Nc1ccc(OC(F)(F)F)cc1)C1CCN(S(=O)(=O)c2ccc3[nH]c(=O)ccc3c2)CC1
82 | 916 | CCc1nc2cc(-c3noc(C(C)NC(=O)c4ccccc4)n3)ccc2o1 (centres undefined)
83 | 900 | CCOc1ccc2c(n1)CCN(C(=O)Nc1ccc(C)c(C)c1)C2
84 | 829 | O=C(N[C@H]1C[C@@H]2C[C@H]1CN2C(=O)Nc1ccc2c(c1)CCC2)c1ccccc1
85 | 696 | CCC(=O)Nc1ccc(CCc2nc3ccc(C(=O)NCCC4=CCCCC4)cc3[nH]2)cc1
86 | 969 | Cc1ccc(C(=O)NCc2nc(-c3ccc4c(c3)nnn4C3CCCC3)no2)cc1

Row | SMILES | RP-LC retention time [s]
87 | CCCCC(=O)N1CCC2(C1)C(=O)N(C)c1ccc(OC)cc12 (centres undefined) | 744
88 | CO[C@@H]1[C@H](OC(=O)NC(=O)CCl)CC[C@]2(CO2)[C@H]1[C@@]1(C)O[C@@H]1CC=C(C)C | 692
89 | O=C(CN1CC=C(c2cnn(-c3ccc(F)cc3)c2)CC1)NC1CCCCC1 | 695
